# Laboratory results: patent publication US6384076B1, “Inhibition or erythrocyte sickling by N-L-alpha-aspartyl-L-phenylalanine 1-methyl ester” (Oklahoma Medical Research Foundation, priority 1998, dated 2002)
# “And” between values parts separate entries of the source, which are not always exact repeats. Equal entries are not always repeated. Peptide text beside a SMILES is read from it.
# Key:
# whole blood viscosity [1] = test: Blood viscosity by RBC pipette method before and after blinded oral APM; type: in vivo, human; details: for Blood viscosity change after treatment: baseline vs 120 minutes post-treatment
# Source text: Blood samples were obtained from ten patients having homozygous HbSS disease or heterozygous HbSC disease before and after a blinded administration of APM at 1.5 (low dosage), 3 (medium dosage), or 6 (high dosage) milligrams per kilogram body weight. The patients' characteristics are given in the first ten entries in Table II.
# Viscosity determinations using the RBC pipette method of Wright and Jenkins (Wright, D. J. and Jenkins, Jr., D. E. 1970. Blood 36:516-522) were made on each blinded whole blood sample before and 120 minutes after blinded administration of APM. Each measurement was made in triplicate. Control viscosity measurements using saline and water for each patient and normal whole blood sample were also made to validate the viscosity measurements.
# (§1) To measure viscosity, 1.01 cc of the test fluid, i.e., either water, saline or blood, was drawn into an RBC pipette using a 50 cc syringe attached via rubber tubing to the top of the RBC pipette. Using a constant pressure of 20 mm by maintaining the pressure with visual feedback and hand pressure, the amount of time it took for the test fluid to drip out of the RBC pipette was measured with a stopwatch. Each measurement was made in triplicate.
# [2] = tested on: osteo- and mixed osteo- and rheumatoid arthritis; details: clinical trial, Edmundson and Manion 1998; cited from earlier work
# sickling RBCs [3] = test: Blinded APM dose-response study of patients with sickle cell disorders (sickle cell counts); type: in vivo, human; details: for Dose-response of antisickling effect: 1.5, 3, 6 mg/kg body weight
# Method: A blinded study was conducted with 23 patients diagnosed with sickle cell disorders. Blood samples were obtained from the 23 patients having sickle cell disease (homozygous HgBss), sickle cell trait (heterozygous Hgbsc), or homozygous HbS with a β-thalassemia chain (“sbthal”) before and after a blinded administration of APM at 1.5 (low dosage), 3 (medium dosage), or 6 (high dosage) milligrams per kilogram body weight.
# Blood was drawn before and 120 minutes after treatment with 0, 1.5, 3, or 6 milligrams APM per kilogram body weight in a blinded fashion from the ten patients into heparin tubes, stored in a refrigerator at approximately 10° C. and routinely tested within 36 hours of collection.
# Normal blood devoid of abnormal hemoglobin was used as a control. For each heparinized patient blood sample and the normal blood control, experimental samples were prepared containing 0.25 milliliters of normal saline and 0.25 milliliters of blood. Following the metabisulfite induction as given in Example 1, the number of sickle cells relative to the number of normal cells was obtained at 0, 30, 60, 120, 240, 480, and 1440 minutes post-induction.
# whole blood viscosity [4] = test: Blood viscosity after additional in vitro APM on samples taken post in vivo treatment; type: cell-based, human; details: 1 or 2 milligrams/milliliter APM added in vitro to 480 minute post-treatment samples
# Method: as §1
# Samples with high viscosity readings at 480 minute or 1,440 minute posttreatment, chosen to represent patients with a validated response to APM who were returning to normal, were divided and treated with an additional 0, 1, or 2 milligrams/milliliter APM in vitro, in an effort to measure whether a second inducible sickling response was possible and if a second response to the in vitro APM addition could be observed. The viscosity of each sample at 480 minutes post-treatment was measured.
# RBCs containing HbS = test: Metabisulfite sickling test on heparinized patient blood treated with APM in vitro; type: cell-based, human; details: for Number of Cells Sickled per Hundred Counted: individual patients 1-12, baseline subtracted; for Number of Cells Sickled per Hundred Counted, Avg: average over 0, 30, 120 min per patient 1-12; for Number of Cells Sickled per Hundred Counted, Mean: mean of the twelve patients' averages (control 17.7)
# Method: Blood was drawn from twelve patients of pediatric age who were being treated by phlebotomy and exchange transfusion for their sickling disorders. Blood samples from each patient were drawn directly into heparin tubes, stored in a refrigerator at approximately 10° C., and routinely tested within 36 hours of collection. Some samples were rechecked or reanalyzed within a week of collection, and the effects on sickle hemoglobin was still present with counted values similar to those obtained within 36 hours.
# Normal blood devoid of HbS was used as a control. For each heparinized patient blood sample and the normal blood control, three experimental samples were prepared containing 0.25 milliliters of normal saline and 0.25 milliliters of blood and then treated as follows: (1) one was left untreated; one was treated with 1 milligram APM; and (3) one was treated with 2 milligrams APM. All experimental samples were stored in a refrigerator at approximately 10° C. for one hour prior to testing to allow time for the APM to be absorbed by the RBCs.
# Using metabisulfite to reduce HbS to the deoxy form (Daland, G. A. and Castle, W. B. 1948. J Lab Clin Med 33:1082-1088; Nelson, D. A. In Todd-Sanford-Davidsohn Clinical Diagnosis by Laboratory Methods, J. B. Henry, ed. (W. B. Saunders Co., Philadelphia, 1979, vol. 1, p. 1020), a sickling test was run on each experimental sample. The sickling inducing agent was prepared fresh daily as follows: 10 milligrams metabisulfite in 1 milliliter isotonic saline. Multiple test slides were prepared for each experimental sample by adding 3 drops of the metabisulfite inducing agent and 1 drop of the experimental sample onto the surface of a glass slide, placing a coverslip over the sample, and sealing the coverslip with a petroleum jelly bead to prevent oxygen from entering the sample. Photomicrographs were taken with a phase contrast microscope at 400 magnification at 0, 30, and 120 minutes after slide preparation, and the results were obtained from the photomicrographs as the number of sickle cells per 100 cells counted.
# To account for natural or non-induced sickling of the experimental samples, a baseline sickling count was obtained for each heparinized patient blood sample and the normal blood control. Slides were prepared by adding 3 drops of saline and 1 drop of the experimental sample onto the surface of a glass slide, placing a coverslip over the sample, and sealing the coverslip with a petroleum jelly bead to prevent oxygen from entering the sample. Photomicrographs were taken with a phase contrast microscope at 400 magnification at 0, 30, and 120 minutes after slide preparation, and the results were obtained from the photomicrographs as the number of sickle cells per 100 cells counted. This number of sickle cells per 100 cells counted was considered the baseline sickling count and was subtracted from the cell counts obtained with the metabisulfite induced samples.
# A timeline for APM effect was made by repeating the experiment given above with cell counts obtained at 0, 1, 2, 3, 4, 5, 24, and 27 hours post-metabisulfite induction. The results are presented in FIG. 2 as combined APM timelines for each treatment method. The antisickling effect of APM in vitro lasted for at least 27 hours. During this period, the rate of sickling in the APM treated
# The effect of calcium (Ca^2+) on the effectiveness of APM was examined by repeating the experiment above with the addition of EDTA, a Ca^2+chelating agent, to normal blood control and the patient experimental samples prior to testing. FIG. 3 illustrates the comparative heparin versus EDTA treatment of the blood. […] Moreover, the addition of a calcium salt to APM formulations useful for antisickling treatment as well as in vitro applications is desirable.
# sickling RBCs [5] = test: Reduction of sickle cells in vivo: metabisulfite sickling test on blood of one patient before and 1 hour after oral APM; parameters: species or system human; details: blood 1 hour after
# Method: During Week 1 of the study, blood samples were taken from the patient before and one hour after an orally administered dose of 60 milligrams APM. During Week 2, blood samples were taken from the patient before and one hour after an orally administered dose of 160 milligrams APM. The blood samples and slides were prepared according to the methods given in Example 1, and cell counts were taken at 0, 30, and 120 minutes post-induction.
smiles,measurement,setting,value
"COC(=O)[C@H](Cc1ccccc1)NC(=O)[C@@H](N)CC(=O)O [APM, N-L-alpha-aspartyl-L-phenylalanine 1-methyl ester] (H-Asp-Phe-OMe)",Blood viscosity change after treatment,"whole blood viscosity [1]; HgBss patients, 1.5, 3 or 6 mg/kg",blood viscosity decreased
same,No. of Patients with decreasing viscosity,"whole blood viscosity [1]; HgBss, of five patients",5
same,Blood viscosity change after treatment,whole blood viscosity [1]; Hgbsc patients,increased viscosity
same,No. of Patients with increasing viscosity,"whole blood viscosity [1]; Hgbsc, of three patients",3
same,Blood viscosity change after treatment,whole blood viscosity [1]; sbthal patients,blood viscosity also decreased
same,No. of Patients with decreasing viscosity,"whole blood viscosity [1]; sbthal, of two patients",2
same,Pain and inflammation of arthritis,[2],alleviate the pain and inflammation
same,Dose-response of antisickling effect,sickling RBCs [3]; HgBss and sbthal patients,significant dose-response effect
same,Dose-response of antisickling effect,sickling RBCs [3]; Hgbsc patients,No dose-response effect
same,Effect on HbSC blood,"sickling RBCs [3]; in vivo or in vitro, sickle cell number and viscosity",not affected
same,Number of sickling RBCs relative to the control,sickling RBCs [3]; lower dosage 1.5 mg/kg body weight,decrease in the number of sickling RBCs
same,Time to reduction in number of sickle cells relative to normal cells after administration,"sickling RBCs [3]; patients with sickle cell family diseases, effective amount",within one hour
same,Viscosity of blood samples compared to the control,whole blood viscosity [4]; HgBss patients,decreased over time
same,Viscosity of blood samples compared to the control,whole blood viscosity [4]; Hgbsc patients,increase in viscosity
same,Number of Cells Sickled per Hundred Counted,"RBCs containing HbS; APM 1 mg in 0.25 ml blood + 0.25 ml saline, 0 min after slide preparation",1.5 per Hundred Counted (2×) and 1.0 per Hundred Counted and 0.5 per Hundred Counted and 0.0 per Hundred Counted and 2.5 per Hundred Counted (2×) and 2.0 per Hundred Counted (2×) and 9.5 per Hundred Counted (2×) and −1.0 per Hundred Counted
same,Number of Cells Sickled per Hundred Counted,"RBCs containing HbS; APM 1 mg, 30 min after slide preparation",2.5 per Hundred Counted and 2.0 per Hundred Counted and −1.0 per Hundred Counted and 6.0 per Hundred Counted and 1.5 per Hundred Counted and 3.5 per Hundred Counted (2×) and 3.0 per Hundred Counted and 10.5 per Hundred Counted and 9.0 per Hundred Counted and 4.5 per Hundred Counted and −0.5 per Hundred Counted
same,Number of Cells Sickled per Hundred Counted,"RBCs containing HbS; APM 1 mg, 120 min after slide preparation",1.5 per Hundred Counted and 3.5 per Hundred Counted (2×) and 1.0 per Hundred Counted and 21.0 per Hundred Counted and 2.5 per Hundred Counted and 3.0 per Hundred Counted and 12.0 per Hundred Counted and 11.0 per Hundred Counted and 4.0 per Hundred Counted and 0.5 per Hundred Counted
same,"Number of Cells Sickled per Hundred Counted, Avg",RBCs containing HbS; APM 1 mg,1.8 per Hundred Counted and 2.2 per Hundred Counted (2×) and 0.2 per Hundred Counted and 9.0 per Hundred Counted and 2.8 per Hundred Counted (2×) and 10.7 per Hundred Counted and 9.8 per Hundred Counted and 3.2 per Hundred Counted (2×) and −0.3 per Hundred Counted
same,"Number of Cells Sickled per Hundred Counted, Mean",RBCs containing HbS; APM 1 mg,4.0 per Hundred Counted
same,Number of Cells Sickled per Hundred Counted,"RBCs containing HbS; APM 2 mg in 0.25 ml blood + 0.25 ml saline, 0 min after slide preparation",0.5 per Hundred Counted (2×) and 0.0 per Hundred Counted (2×) and 2.0 per Hundred Counted (2×) and 2.5 per Hundred Counted and 1.0 per Hundred Counted (2×) and 6.5 per Hundred Counted and 8.5 per Hundred Counted and −5.5 per Hundred Counted
same,Number of Cells Sickled per Hundred Counted,"RBCs containing HbS; APM 2 mg, 30 min after slide preparation",0.5 per Hundred Counted (2×) and 1.0 per Hundred Counted and −0.5 per Hundred Counted and 6.0 per Hundred Counted and 2.0 per Hundred Counted (3×) and 1.5 per Hundred Counted and 5.0 per Hundred Counted and 8.5 per Hundred Counted and −6.5 per Hundred Counted
same,Number of Cells Sickled per Hundred Counted,"RBCs containing HbS; APM 2 mg, 120 min after slide preparation",−0.5 per Hundred Counted (2×) and 0.5 per Hundred Counted and 19.0 per Hundred Counted and 2.5 per Hundred Counted and 5.0 per Hundred Counted and 2.0 per Hundred Counted (2×) and 9.5 per Hundred Counted and 1.0 per Hundred Counted and −6.5 per Hundred Counted
same,"Number of Cells Sickled per Hundred Counted, Avg",RBCs containing HbS; APM 2 mg,0.0 per Hundred Counted and 0.5 per Hundred Counted and −0.3 per Hundred Counted and 9.0 per Hundred Counted and 2.3 per Hundred Counted and 1.3 per Hundred Counted and 3.0 per Hundred Counted and 4.5 per Hundred Counted and 8.8 per Hundred Counted and 1.2 per Hundred Counted and 0.8 per Hundred Counted and −6.2 per Hundred Counted
same,"Number of Cells Sickled per Hundred Counted, Mean",RBCs containing HbS; APM 2 mg,2.1 per Hundred Counted
same,Antisickling effect of APM with addition of EDTA,RBCs containing HbS; EDTA (Ca2+ chelating agent) added prior to testing,completely eliminated the antisickling effect
same,Sickle cells after metabisulfite versus controls,"RBCs containing HbS; all twelve patients, 1 and 2 mg APM, ANOVA p<0.00004",fewer sickle cells than the controls
same,Duration of antisickling effect in vitro,RBCs containing HbS; counts at 0-27 hours post-metabisulfite induction,at least 27 hours
same,Passage of APM across the RBC membrane,RBCs containing HbS; in the absence of Ca2+ (EDTA),does not pass the RBC membrane
same,Rate of sickling in APM treated cells,"RBCs containing HbS; over 27 hours, versus controls",significantly less than that in the controls
same,Number of sickling RBCs relative to the control,"sickling RBCs [5]; 60 milligrams APM orally, patient with sickle cell anemia",decrease in the number of sickling RBCs
same,Antisickling effect versus 60 milligram dosage,"sickling RBCs [5]; 160 milligrams APM orally, same patient",proportionately larger
